According to patent publication US5089516A, “1-phenyl-3,5-pyrazolidinedione hydroxystyrene compounds which have tyrosine kinase inhibiting activity” (Kanegafuchi Kagaku Kogyo Kabushiki Kaisha, priority 1987, dated 1992):

Experiments:
[1] = molecular target: T1, 5-lipoxygenase (Cavia porcellus, UniProt A0A286X958); assay: 5-Lipoxygenase inhibiting activity (5-HETE formation, cytosol of peritoneal exudate cells); format: biochemical, Hartley guinea pigs; conditions: read-out: Inhibition rate (5-lipoxygenase); for inhibition at 10 µM: 10 μM in the reaction mixture; for inhibition at 1 µM: 1 μM in the reaction mixture
T1 construct: The cytosol fraction was used as an enzyme solution; from tissue; host or cells: peritoneal exudate cells of casein-injected Hartley guinea pigs, 105,000×g cytosol
T1 sequence (A0A286X958 1-674): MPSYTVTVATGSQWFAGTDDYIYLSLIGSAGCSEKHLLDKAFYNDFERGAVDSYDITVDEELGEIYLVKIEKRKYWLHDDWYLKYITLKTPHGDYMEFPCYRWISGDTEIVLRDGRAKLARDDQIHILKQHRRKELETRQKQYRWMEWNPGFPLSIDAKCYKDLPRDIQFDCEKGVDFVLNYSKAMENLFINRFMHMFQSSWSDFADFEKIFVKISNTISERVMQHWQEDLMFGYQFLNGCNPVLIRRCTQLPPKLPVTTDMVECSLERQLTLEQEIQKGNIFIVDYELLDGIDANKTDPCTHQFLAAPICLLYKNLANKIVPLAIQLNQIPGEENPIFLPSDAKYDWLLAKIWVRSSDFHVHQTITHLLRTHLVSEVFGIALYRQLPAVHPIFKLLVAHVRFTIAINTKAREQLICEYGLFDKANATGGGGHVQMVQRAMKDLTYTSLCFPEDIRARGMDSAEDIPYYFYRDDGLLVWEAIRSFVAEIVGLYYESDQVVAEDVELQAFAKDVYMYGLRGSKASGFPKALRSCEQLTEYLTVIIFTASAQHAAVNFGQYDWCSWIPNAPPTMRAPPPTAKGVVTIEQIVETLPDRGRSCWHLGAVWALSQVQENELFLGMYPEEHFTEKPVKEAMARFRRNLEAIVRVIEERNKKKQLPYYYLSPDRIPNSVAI
Summary of the method: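 Enzyme source: cytosol (105,000×g supernatant) of casein-elicited guinea pig peritoneal exudate cells, preincubated 5 min at 30 °C with compound (2% ethanol final), 1 mM CaCl2, 1 mM GSH, 2 mM ATP, then 5 min with 20 μM [1-14C]arachidonic acid. 5-HETE separated by TLC, counted by scintillation; % inhibition versus ethanol control.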

[2] = molecular target: T2, epidermal growth factor receptor-tyrosine kinase complex (Homo sapiens, UniProt P00533); assay: Tyrosine kinase inhibiting activity (A-431 membrane preparation, EGF-stimulated); format: biochemical; conditions: read-out: Tyrosine kinase inhibition rate; for inhibition at 10 µM: 10 μM in the reaction mixture; for inhibition at 1 µM: 1 μM in the reaction mixture
T2 construct: The membrane preparation was employed in the following measurement without solubilization; endogenous in cells; host or cells: A-431 (ATCC CRL1555), membrane preparation, not solubilized
Summary of the method: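 Unsolubilized A-431 membranes (10 μg protein) in 20 mM HEPES pH 7.4 with 1 mM MnCl2 were preincubated with compound (DMSO) 5 min at 0° C, stimulated with 100 ng EGF 15 min, then phosphorylated with [γ-32P]ATP 15 min at 0° C. TCA-precipitated radioactivity on filter counted; inhibition % calculated against no-EGF and no-compound controls.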

T2 sequence (P00533 25-1210, one chain of several): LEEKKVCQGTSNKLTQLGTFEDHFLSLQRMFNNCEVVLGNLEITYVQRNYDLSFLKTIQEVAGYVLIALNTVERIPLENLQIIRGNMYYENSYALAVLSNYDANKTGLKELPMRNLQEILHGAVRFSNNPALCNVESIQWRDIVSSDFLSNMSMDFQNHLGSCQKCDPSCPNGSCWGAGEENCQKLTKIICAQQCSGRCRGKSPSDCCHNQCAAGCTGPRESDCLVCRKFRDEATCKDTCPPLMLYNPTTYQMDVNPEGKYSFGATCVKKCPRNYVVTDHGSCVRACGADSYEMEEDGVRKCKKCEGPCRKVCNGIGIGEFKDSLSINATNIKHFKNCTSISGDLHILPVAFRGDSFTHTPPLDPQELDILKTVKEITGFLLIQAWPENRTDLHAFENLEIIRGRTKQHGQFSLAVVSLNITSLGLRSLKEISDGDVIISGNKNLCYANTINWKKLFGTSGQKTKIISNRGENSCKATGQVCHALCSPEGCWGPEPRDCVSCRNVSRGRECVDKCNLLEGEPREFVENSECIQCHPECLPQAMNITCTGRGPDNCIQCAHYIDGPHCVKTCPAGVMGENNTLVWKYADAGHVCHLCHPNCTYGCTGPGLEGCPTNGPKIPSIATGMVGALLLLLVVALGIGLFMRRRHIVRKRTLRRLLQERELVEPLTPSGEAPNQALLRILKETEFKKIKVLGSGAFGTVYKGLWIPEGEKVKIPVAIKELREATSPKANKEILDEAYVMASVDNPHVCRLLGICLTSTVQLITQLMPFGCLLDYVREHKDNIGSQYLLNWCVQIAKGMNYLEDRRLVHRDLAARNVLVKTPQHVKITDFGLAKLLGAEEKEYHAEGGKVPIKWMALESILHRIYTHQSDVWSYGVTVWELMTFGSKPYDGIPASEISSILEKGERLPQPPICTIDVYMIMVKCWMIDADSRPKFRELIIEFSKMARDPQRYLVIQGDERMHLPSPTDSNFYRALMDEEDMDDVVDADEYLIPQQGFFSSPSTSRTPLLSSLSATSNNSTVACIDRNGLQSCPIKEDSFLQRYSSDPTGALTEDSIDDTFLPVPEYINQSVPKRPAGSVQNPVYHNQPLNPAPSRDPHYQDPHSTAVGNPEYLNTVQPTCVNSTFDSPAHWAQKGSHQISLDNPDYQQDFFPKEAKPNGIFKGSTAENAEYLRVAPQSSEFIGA

| Compound | inhibition at 10 µM [1] [%] | inhibition at 10 µM [2] [%] | inhibition at 1 µM [2] [%] | inhibition at 1 µM [1] [%] |
| --- | --- | --- | --- | --- |
| CC(C)c1cc(C=C2SC(NCc3ccccc3)=NC2=O)cc(C(C)C)c1O [Compound 33] | 82 | 69 |  |  |
| CC(C)c1cc(C=C2SC(NCc3ccc(F)cc3)=NC2=O)cc(C(C)C)c1O [Compound 35] | 89 |  | 70 |  |
| CCCCOc1cc(C=C2SC(=S)NC2=O)cc(Cc2ccccc2)c1O [Compound 10] |  |  | 40 | 23 |
| CC(C)c1cc(C=C2SC(NCc3ccc(S(N)(=O)=O)cc3)=NC2=O)cc(C(C)C)c1O [Compound 41] | 89 | 70 |  |  |
| O=C1N=C(NCc2ccccc2)SC1=Cc1cc(Cc2ccccc2)c(O)c(Cc2ccccc2)c1 [Compound 26] |  | 62 |  | 84 |
| CC(C)c1cc(C=C2SC(NCc3ccc(Cl)c(Cl)c3)=NC2=O)cc(C(C)C)c1O [Compound 37] | 89 | 83 |  |  |
| O=C1Nc2ccccc2C1=Cc1cc(O)c(O)c(CSc2ccccc2)c1 [Compound 11] |  | 52 |  | 87 |
| CC(C)c1cc(C=C2SC(NCc3ccc(N)cc3)=NC2=O)cc(C(C)C)c1O [Compound 42] | 88 |  | 85 |  |
| O=C1NN(c2ccccc2)C(=O)C1=Cc1cc(Cc2ccccc2)c(O)c(Cc2ccccc2)c1 [Compound 20] | 83 |  | 46 |  |
| Cc1ccc(CNC2=NC(=O)C(=Cc3cc(C(C)C)c(O)c(C(C)C)c3)S2)cc1 [Compound 39] | 87 | 43 |  |  |
| O=C1NC(=S)SC1=Cc1cc(O)c(O)c(CSc2ccccc2)c1 [Compound 7] |  | 59 |  | 88 |
| O=C1NN(c2ccccc2)C(=O)C1=Cc1cc(O)c(O)c(Cc2ccccc2)c1 [Compound 24] |  |  | 37 | 48 |
| CCCCOc1cc(C=C2SC(=S)NC2=O)cc(CSc2ccccc2)c1O [Compound 9] |  | 50 |  | 91 |
| O=C1N=C(NCc2cccs2)SC1=Cc1cc(CSc2ccccc2)c(O)c(OCc2ccccc2)c1 [Compound 31] |  | 41 |  | 49 |
| O=C1NC(=S)SC1=Cc1cc(CSc2ccccc2)c(O)c(OCc2ccccc2)c1 [Compound 8] |  | 69 |  | 61 |
| O=C1NC(=S)SC1=Cc1cc(Cc2ccccc2)c(O)c(Cc2ccccc2)c1 [Compound 2] | 78 |  | 20 |  |
